Each structure is given as a SMILES string. pIC50: −log10 of the molar value. Structures can show the parent of a compound that is named as a salt.

In experiment [1] the test system is Human umbilical vein endothelial cells (HUVEC). In words: Inhibition of growth factor-mediated cell proliferation (hFGF-2, HUVEC). The experiment is classed as cell-based. To be noted: 72 h, read-out: hFGF-2 mediated HUVEC proliferation, IC50 [nM].
The target in experiment [2] is human FGFR-3 (Homo sapiens (Human), UniProt P22607). In words: FGFR-3 kinase assay (TR-FRET). The experiment is classed as biochemical. To be noted: 10 μM ATP, 15 min pre-incubation with enzyme, compounds of the invention.
Chain of human FGFR-3 (P22607 397-806): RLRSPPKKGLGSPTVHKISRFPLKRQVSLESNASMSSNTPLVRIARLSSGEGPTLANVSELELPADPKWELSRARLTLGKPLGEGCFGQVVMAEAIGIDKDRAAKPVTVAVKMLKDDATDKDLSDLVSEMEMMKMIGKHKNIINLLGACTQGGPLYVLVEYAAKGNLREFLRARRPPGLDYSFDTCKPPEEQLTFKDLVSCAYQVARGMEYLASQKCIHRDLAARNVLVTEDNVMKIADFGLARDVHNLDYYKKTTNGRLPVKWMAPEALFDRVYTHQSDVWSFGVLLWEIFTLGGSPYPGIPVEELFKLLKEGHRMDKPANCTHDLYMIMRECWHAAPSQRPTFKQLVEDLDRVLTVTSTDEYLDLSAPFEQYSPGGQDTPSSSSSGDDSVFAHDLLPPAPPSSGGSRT
In experiment [3] the target is human FGFR-1 (Homo sapiens, UniProt P11362). The experiment in a line: FGFR-1 high ATP kinase assay (TR-FRET). The experiment is classed as biochemical. To be noted: 2 mM ATP; 15 min pre-incubation with enzyme; compounds of the invention.
Chain of human FGFR-1 (P11362 22-822 limits assumed): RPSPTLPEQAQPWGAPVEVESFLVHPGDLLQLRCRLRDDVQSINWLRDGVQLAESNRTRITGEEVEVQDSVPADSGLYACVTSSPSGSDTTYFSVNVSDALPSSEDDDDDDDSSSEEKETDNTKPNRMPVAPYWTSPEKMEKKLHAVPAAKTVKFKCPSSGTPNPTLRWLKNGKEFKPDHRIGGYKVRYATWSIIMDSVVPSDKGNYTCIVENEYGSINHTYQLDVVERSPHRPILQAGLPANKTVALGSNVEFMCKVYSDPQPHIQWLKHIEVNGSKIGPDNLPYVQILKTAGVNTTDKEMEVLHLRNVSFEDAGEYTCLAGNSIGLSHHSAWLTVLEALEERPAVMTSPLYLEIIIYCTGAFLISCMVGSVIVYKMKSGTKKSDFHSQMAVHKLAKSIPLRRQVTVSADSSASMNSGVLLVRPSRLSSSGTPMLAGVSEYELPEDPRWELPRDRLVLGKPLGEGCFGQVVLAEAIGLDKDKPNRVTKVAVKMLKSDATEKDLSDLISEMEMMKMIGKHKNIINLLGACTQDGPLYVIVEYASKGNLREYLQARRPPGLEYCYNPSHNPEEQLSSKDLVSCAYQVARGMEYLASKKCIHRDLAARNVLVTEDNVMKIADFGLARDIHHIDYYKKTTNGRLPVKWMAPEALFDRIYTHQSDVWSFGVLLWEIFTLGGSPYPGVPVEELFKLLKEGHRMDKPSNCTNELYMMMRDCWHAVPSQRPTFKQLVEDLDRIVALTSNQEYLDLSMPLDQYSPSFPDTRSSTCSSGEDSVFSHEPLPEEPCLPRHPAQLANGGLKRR

In the case of `CCOCc1c(-c2cc3cc(C)cc(OC)c3s2)c2c(N)ncnn2c1CN1CCN(C(C)=O)CC1` [Example 11, 1-(4-{[4-Amino-6-(ethoxymethyl)-5-(7-methoxy-5-methyl-1-benzothiophen-2-yl)pyrrolo[2,1-f]-[1,2,4]triazin-7-yl]methyl}piperazin-1-yl)ethanone dihydrochloride], the IC50 in experiment [1] worked out at 150 nM. The same molecule showed a pIC50 in experiment [2] (dihydrochloride) of 7.89. Turning to `COCc1c(-c2cc3cc(C)cc(OC)c3s2)c2c(N)ncnn2c1CN1CC[C@](C)(N)C1` [Example 14, 7-{[(3S)-3-Amino-3-methylpyrrolidin-1-yl]methyl}-6-(methoxymethyl)-5-(7-methoxy-5-methyl-1-benzothiophen-2-yl)pyrrolo[2,1-f][1,2,4]triazin-4-amine trihydrochloride], the pIC50 in experiment [3] is 8.85. Further, the IC50 in experiment [1] was determined as 25 nM. Turning to `COc1cc(C)cc2cc(-c3c(CNC4CC4)c(CN4CCNCC4)n4ncnc(N)c34)sc12` [Example 46, 6-[(Cyclopropylamino)methyl]-5-(7-methoxy-5-methyl-1-benzothiophen-2-yl)-7-(piperazin-1-ylmethyl)pyrrolo[2,1-f][1,2,4]triazin-4-amine trihydrochloride], in experiment [1], the IC50 was determined as 84.5 nM. Take `COc1cc(C)cc2cc(-c3c(CNCC(=O)O)c(CN4CCNCC4)n4ncnc(N)c34)sc12` [Example 48, N-{[4-Amino-5-(7-methoxy-5-methyl-1-benzothiophen-2-yl)-7-(piperazin-1-ylmethyl)pyrrolo-[2,1-f][1,2,4]triazin-6-yl]methyl}glycine trihydrochloride]: the IC50 in experiment [1] was determined as 360 nM. This molecule also had a pIC50 in experiment [2] of 7.34.

For `COc1cc(C)cc2cc(-c3c(CNC(C)=O)c(CN4CCNCC4)n4ncnc(N)c34)sc12` [Example 64, N-{[4-Amino-5-(7-methoxy-5-methyl-1-benzothiophen-2-yl)-7-(piperazin-1-ylmethyl)pyrrolo-[2,1-f][1,2,4]triazin-6-yl]methyl}acetamide dihydrochloride], the IC50 in experiment [1] turned out to be 4.5 nM.

Source of the values: patent US9206184B2, “Disubstituted benzothienyl-pyrrolotriazines and uses thereof” (BAYER INTELLECTUAL PROPERTY GmbH, priority 2011, dated 2015).
